Type in all cases: cell-based
Assay [1] has as its system human PBMCs. Description: Cytokines in supernatants of anti-CD3/anti-CD28 stimulated human PBMC (Examples 6, 8, 9). The following applies: for IL-2 in culture supernatants (fold over vehicle): day 2 post-stimulation, compound 10 at 1, 3, 10 μM. Here is the method: The effect of compound 10 on IL-2 and IFN-γ production in human PBMCs was determined as follows. PBMCs from a single donor were adjusted to a density of 2×10^6 cells/mL, stimulated with 100 ng/mL of anti-CD3 and 100 ng/mL of anti-CD28 antibodies and treated with 1 μM, 3 μM, or 10 μM of compound 10. Supernatant from these cells was taken on day 2 post-stimulation and the levels of IL-2 and IFN-γ were determined by ELISA assay using Ready-SET-Go ELISA kits from Affimetrix Ebioscience according to the manufacturer's instructions.
The effect of compound 10 on IL-2 production in human PBMCs was determined as follows. […] Supernatant from these cells was taken on day 3 post-stimulation and the levels of IL-2 were determined by ELISA assay using Ready-SET-Go™ ELISA kits from Affimetrix Ebioscience and LEGENDplex™ bead-based immunoassays from BioLegend according to the manufacturer's instructions.
The effect of compound 10 on IL-2 production in human PBMC from each donor was determined as follows. PBMC from each donor were adjusted to a density of 2×10^6 cells/mL, stimulated with 100 ng/mL of anti-CD3 and 100 ng/mL of anti-CD28 antibodies and treated with 30 μM compound 10. Supernatant from these cells was taken on day 2 post-stimulation and the levels of IL-2 were determined by ELISA assay using LEGENDplex™ bead-based immunoassays from BioLegend (San Diego, Calif.) according to the manufacturer's instructions.
The effect of compound 10 on the production of a panel of additional cytokines (interleukin 5 (IL-5), interleukin 13 (IL-13), interleukin 6 (IL-6), interleukin 9 (IL-9), interleukin 10 (IL-10), interferon gamma (IFN-γ), tumor necrosis factor alpha (TNF-α), interleukin 17A (IL-17A), interleukin 17F (IL-17F), interleukin 4 (IL-4) and interleukin 22 (IL-22)) in pooled human PBMC obtained from eight donors was determined as follows. PBMC from eight donors were pooled, then adjusted to a density of 2×10^6 cells/mL, stimulated with 100 ng/mL of anti-CD3 and 100 ng/mL of anti-CD28 antibodies and treated with 30 μM compound 10. Supernatant from these cells was taken on day 2 post-stimulation and the levels of IL-5, IL-13, IL-6, IL-9, IL-10, IFN-γ, TNF-α, IL-17A, IL-17F, IL-4 and […] were determined by ELISA using LEGENDplex™ bead-based immunoassays from BioLegend (San Diego, Calif.) according to the manufacturer's instructions.

For a further assay, the target named is T1, ADBR2 (Homo sapiens, UniProt P07550).
T1 construct: host or cells: HEK293 or CHO cell lines (ATCC)
T1 sequence (P07550 whole entry): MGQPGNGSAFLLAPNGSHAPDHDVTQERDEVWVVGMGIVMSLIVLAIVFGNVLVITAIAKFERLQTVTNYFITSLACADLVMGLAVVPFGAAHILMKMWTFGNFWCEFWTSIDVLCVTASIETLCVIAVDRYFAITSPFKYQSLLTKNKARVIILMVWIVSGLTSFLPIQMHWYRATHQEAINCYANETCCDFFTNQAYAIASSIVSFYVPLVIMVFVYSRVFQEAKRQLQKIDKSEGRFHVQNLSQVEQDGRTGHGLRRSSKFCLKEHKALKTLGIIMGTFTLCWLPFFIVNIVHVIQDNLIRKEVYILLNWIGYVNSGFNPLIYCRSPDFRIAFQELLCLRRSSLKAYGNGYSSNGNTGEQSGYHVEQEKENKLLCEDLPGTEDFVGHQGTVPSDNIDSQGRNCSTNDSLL
As to the kind of experiment: CRE-Luc reporter assay with control receptor ADBR2. (Reporter assays use an easily measured gene product as a stand-in for the process of interest.)

In another assay the test system is mouse splenocytes. As to the kind of experiment: IL-2 levels in supernatants of cultured mouse splenocytes (WT or GPR174-KO) stimulated with anti-CD3 and anti-CD28, MSD platform. The following applies: 2 days. Here is the method:
To make single cell suspensions from mouse splenocytes, spleens were cut into 1-2 mm^3 pieces with a razor blade and incubated at 37° C. with 10 μg/mL DNase and 1 mg/mL Collagenase D with agitation for 90 min. Spleen fragments and cells were then pressed through a nylon screen, and the resulting cell suspension was washed. In 96-well flat-bottom plates, splenocytes were cultured in quadruplicate with the following conditions for 2 days, after which supernatants were tested for cytokine levels with the MSD platform.
Anti-CD3 (clone 2C11; 0.1 μg/mL)
GPR174 inhibitor (compound 10, 1 μM or 0.3 μM, or DMSO vehicle control)
GPR174 inhibitor (compound 6, 0.3 μM, or DMSO vehicle control)
Adenosine receptor agonist (NECA, 0.1 μM)

The test system of assay [2] is human PBMCs. Description: CTLA-4 expression on naive and memory T cells in human PBMC. The conditions noted are these: 0.19-6.0 μM; one day post-stimulation; vs vehicle. Here is the method:
PBMC cells from a single donor were cultured overnight with additional irradiated antigen-presenting cells (APC) in the presence of various concentrations of GPR174 inhibitory compound 10 (0.019 to 6 μM) or equivalent concentrations of vehicle (DMSO). Anti-CD3 (OKT3) was then added to the cultures for an additional 24 hours. The cells were analyzed by flow cytometry for expression of FOXP3, CTLA-4, CD4, CD3, CD45RA and CD25.

The mark [3] stands for this setting: Example 9, day 2, PBMC of eight donors, 30 μM.

These results are taken from patent US20200345725A1, “Methods and Compositions for Treating Cancer” (Omeros Corporation, priority 2019, published 2020).

Consider `O=C(c1ccccc1)N1CCN(c2cc(N3CCCCC3)c(F)cc2[N+](=O)[O-])CC1` [compound 6], for which, in the assay with human PBMCs [1] (Example 6), the “IL-2 in culture supernatants (fold over vehicle)” value is listed as “increased IL-2 levels”. Besides, the “Gs pathway in the presence of ADBR2 (CRE-Luc reporter)” value on ADBR2 is listed as “did not inhibit”. In addition, the “increase of IL-2 levels” value in the assay with mouse splenocytes (GPR174-KO splenocytes, NECA 0.1 μM, compounds 10, 6 0.3 μM, ZM-241385 0.2 μM, FIG. 70B) is on record as “modest off-target activity”.
As for `CC1CCN(c2cc(N3CCN(S(=O)(=O)c4ccccc4)CC3)c([N+](=O)[O-])cc2F)CC1` [compound 10], in the assay on human PBMCs [2], the “CTLA4 expression in memory Treg cells (CD45RA−FOXP3+)” value is given as “reduced”, the “CTLA4 expression in memory non-Treg cells (CD45RA−FOXP3−)” value is listed as “reduced”, the “CTLA4 expression in naive Treg cells (CD45RA+FOXP3+)” value is listed as “reduced” and the “CTLA4 expression in naive non-Treg cells (CD45RA+FOXP3−)” value is “reduced”. The “IFN-γ in culture supernatants, fold over vehicle” value with human PBMCs [1] (Example 6, day 2, 1, 3, 10 μM) was “increased interferon gamma (IFN-γ) in a dose-dependent manner”. For the same compound, the “IL-2 in culture supernatants (fold over vehicle)” value in the assay with human PBMCs [1] (Example 6) is “increased IL-2 levels in a dose-dependent manner”. In addition, the “IL-2 in culture supernatants” value in the assay on human PBMCs [1] (Example 8, day 3, single donor, 3, 10, 30, 60 μM) is recorded as “increased IL-2 levels in culture supernatants in a dose-dependent manner”. For the same compound, in the assay on human PBMCs [1] (setting [3]), the “IFN-γ in culture supernatants, fold over vehicle” value is given as “statistically significant fold increase”; the “IL-6 in culture supernatants, fold over vehicle” value is “statistically significant fold increase”; the “IL-10 in culture supernatants, fold over vehicle” value is “statistically significant fold increase”; the “IL-17A in culture supernatants, fold over vehicle” value is “statistically significant fold decrease”. For the same compound, the “TNF-α in culture supernatants, fold over vehicle” value in the assay with human PBMCs [1] (setting [3]) is listed as “statistically significant fold increase”. The “IL-2 in culture supernatants, fold over vehicle, average” value in the assay on human PBMCs [1] (Example 9, day 2, eight donors, 30 μM) is “about 5 fold”. Also, the “Gs pathway in the presence of ADBR2 (CRE-Luc reporter)” value on ADBR2 is recorded as “did not inhibit”. For the same compound, in the assay on mouse splenocytes (WT splenocytes, no NECA, compound 10 1 μM, ZM-241385 0.1 μM, FIG. 68A), the “increase of IL-2 levels” value was “greater than 4 fold”.
